From ChEMBL document CHEMBL4825763, “Discovery of potent and selective Bcl-2 inhibitors with acyl sulfonamide skeleton” (Bioorg Med Chem, 2021)
Calls of active or inactive are those of the source. The rule behind the calls is not given here.

Columns and labels:
Bcl-2-like protein 1 = Bcl-2-like protein 1 (Homo sapiens, UniProt Q07817); assay: Displacement of Bak derived peptide from Bcl-xL (unknown origin) measured after 15 mins by microplate reader assay
[1] = biological target: Apoptosis regulator Bcl-2 (Homo sapiens, UniProt P10415); assay: Displacement of Bak derived peptide from Bcl-2 (unknown origin) measured after 15 mins by microplate reader assay
Sequence of Apoptosis regulator Bcl-2 (P10415 whole entry): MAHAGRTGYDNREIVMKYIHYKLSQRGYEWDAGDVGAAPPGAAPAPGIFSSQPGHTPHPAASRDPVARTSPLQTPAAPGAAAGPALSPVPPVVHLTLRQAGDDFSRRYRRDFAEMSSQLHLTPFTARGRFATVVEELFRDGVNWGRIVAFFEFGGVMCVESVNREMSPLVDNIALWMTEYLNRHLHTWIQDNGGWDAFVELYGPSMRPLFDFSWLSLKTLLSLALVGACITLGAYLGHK

RS4-11 = assay: Antiproliferative activity against human RS4-11 cells assessed as inhibition of cell proliferation measured after 72 hrs by CCK8 assay; assay type: functional, cell-based; settings: RS4-11, 72 h
[2] = Half life in rat at 5 mg/kg, ig administered as single dose measured upto 24 hrs by LC-MS/MS analysis; assay type: ADME, organism-based; settings: in vivo, po
[3] = AUC (0 to t) in rat at 5 mg/kg, ig administered as single dose measured upto 24 hrs by LC-MS/MS analysis; assay type: ADME, organism-based; parameters: route intragastric, dose 5 mg/kg, time <=24; settings: in vivo, po
[4] = Metabolic stability in rat liver microsomes assessed as parent compound remaining incubated for 60 mins in presence of NADPH; assay type: ADME, Microsome; settings: read-out: Stabilty
[5] = MRT (0 to t) in rat at 5 mg/kg, ig administered as single dose measured upto 24 hrs by LC-MS/MS analysis; assay type: ADME, organism-based; settings: in vivo, po
[6] = AUC (0 to infinity) in rat at 5 mg/kg, ig administered as single dose measured upto 24 hrs by LC-MS/MS analysis; assay type: ADME, organism-based; parameters: route intragastric, dose 5 mg/kg, time <=24; settings: in vivo, po
[7] = Metabolic stability in mouse liver microsomes assessed as parent compound remaining incubated for 60 mins in presence of NADPH; assay type: ADME, Microsome; settings: read-out: Stabilty
[8] = AUC (0 to t) in mouse at 10 mg/kg, ig administered as single dose measured upto 24 hrs by LC-MS/MS analysis; assay type: ADME, organism-based; parameters: route intragastric, dose 10 mg/kg, time <=24; settings: in vivo, po
[9] = MRT (0 to t) in mouse at 10 mg/kg, ig administered as single dose measured upto 24 hrs by LC-MS/MS analysis; assay type: ADME, organism-based; settings: in vivo, po
[10] = biological target: T1, Caspase-3 (Canis lupus familiaris) (UniProt Q8MKI5); assay: Induction of caspase 3 activity in dog platelets assessed as cleavage of Ac-DEVD-Pna at 0.5 to 2.5 uM using Ac-DEVD-pNA as substrate incubated for 90 mins; assay type: tissue-based; settings: Platelet, dose 0.5-2.5 µM
T1 sequence (whole entry): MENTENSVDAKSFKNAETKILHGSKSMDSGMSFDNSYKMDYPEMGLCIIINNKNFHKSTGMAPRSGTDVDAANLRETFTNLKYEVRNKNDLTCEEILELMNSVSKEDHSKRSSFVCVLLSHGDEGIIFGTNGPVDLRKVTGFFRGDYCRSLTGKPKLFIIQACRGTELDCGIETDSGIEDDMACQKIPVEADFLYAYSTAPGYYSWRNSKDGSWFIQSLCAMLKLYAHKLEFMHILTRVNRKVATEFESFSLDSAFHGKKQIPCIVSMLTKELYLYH

[11] = Half life in mouse at 10 mg/kg, ig administered as single dose measured upto 24 hrs by LC-MS/MS analysis; assay type: ADME, organism-based; settings: in vivo, po
[12] = Cmax in rat at 5 mg/kg, ig administered as single dose measured upto 24 hrs by LC-MS/MS analysis; assay type: ADME, organism-based; parameters: route intragastric, dose 5 mg/kg, time <=24; settings: in vivo, po
[13] = Cmax in mouse at 10 mg/kg, ig administered as single dose v measured upto 24 hrs by LC-MS/MS analysis; assay type: ADME, organism-based; parameters: route intragastric, dose 10 mg/kg, time <=24; settings: in vivo, po
[14] = Tmax in mouse at 10 mg/kg, ig administered as single dose measured upto 24 hrs by LC-MS/MS analysis; assay type: ADME, organism-based; settings: in vivo, po
[15] = Tmax in rat at 5 mg/kg, ig administered as single dose measured upto 24 hrs by LC-MS/MS analysis; assay type: ADME, organism-based; settings: in vivo, po
[16] = Metabolic stability in human liver microsomes assessed as parent compound remaining incubated for 60 mins in presence of NADPH; assay type: ADME, Microsome; settings: read-out: Stabilty
[17] = Toxicity in C57BL/6 mouse plasma assessed as effect on platelet count at 300 mg/kg, ig for 4 hrs; assay type: organism-based; settings: in vivo, po
[18] = AUC (0 to infinity) in mouse at 10 mg/kg, ig administered as single dose measured upto 24 hrs by LC-MS/MS analysis; assay type: ADME, organism-based; parameters: route intragastric, dose 10 mg/kg, time <=24; settings: in vivo, po

Sequence of Bcl-2-like protein 1 (Q07817 whole entry): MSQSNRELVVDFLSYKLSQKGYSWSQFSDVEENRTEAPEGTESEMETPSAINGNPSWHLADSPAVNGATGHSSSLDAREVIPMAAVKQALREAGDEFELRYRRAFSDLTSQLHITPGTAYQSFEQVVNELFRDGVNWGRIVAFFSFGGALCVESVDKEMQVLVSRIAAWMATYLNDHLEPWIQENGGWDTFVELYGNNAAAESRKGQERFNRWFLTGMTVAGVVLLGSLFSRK

## CCN(CC)CCCNc1ccc(S(=O)(=O)NC(=O)c2ccc(N3CCN(CC4=C(c5ccc(C(F)(F)F)cc5)CC(C)(C)CC4)CC3)cc2Oc2cnc3[nH]ccc3c2)cc1[N+](=O)[O-]
Bcl-2-like protein 1
  IC50: 25 nM
[1]
  IC50: 0.3 nM
RS4-11
  IC50: 3 nM

## CC1(C)CCC(CN2CCN(c3ccc(C(=O)NS(=O)(=O)c4ccc(NCC5CCOCC5)c([N+](=O)[O-])c4)c(Oc4cnc5[nH]ccc5c4)c3)CC2)=C(c2ccc(Cl)cc2)C1 [VENETOCLAX]
[2]
  half-life: 1.9 h
[3]
  AUC(0-t) at 24 h: 1380 ng·h/mL
[4]
  remaining at 1 h: 46.3%
[5]
  MRT last at 24 h: 3.55 h
[6]
  AUC(0-inf): 1470 ng·h/mL
[7]
  remaining at 1 h: 58.8%
[8]
  AUC(0-t) at 24 h: 7760 ng·h/mL
[9]
  MRT last at 24 h: 4.71 h
[10]
  Activity: inactive
[11]
  half-life: 2.78 h
[12]
  Cmax: 355 ng/mL
RS4-11
  IC50: 1.8 nM
[13]
  Cmax: 1310 ng/mL
[14]
  Tmax: 1.67 h
[15]
  Tmax: 2.67 h
[16]
  remaining at 1 h: 54.9%
[17]
  Activity: Toxic
[18]
  AUC(0-inf): 8100 ng·h/mL

## CN(C)CCCNc1ccc(S(=O)(=O)NC(=O)c2ccc(N3CCN(CC4=C(c5ccc(C(F)(F)F)cc5)CC(C)(C)CC4)CC3)cc2Oc2cnc3[nH]ccc3c2)cc1[N+](=O)[O-]
Bcl-2-like protein 1
  IC50: 29 nM
[1]
  IC50: 0.89 nM
RS4-11
  IC50: 3.9 nM

## CC1(C)CCC(CN2CCN(c3ccc(C(=O)NS(=O)(=O)c4ccc(NCC5CCOCC5)c([N+](=O)[O-])c4)c(Oc4cnc5[nH]ccc5c4)c3)CC2)=C(c2ccc(C(F)(F)F)c(Cl)c2)C1
Bcl-2-like protein 1
  IC50: > 2000 nM
RS4-11
  IC50: 81 nM

## CC(C)C(=O)N1CCC(CNc2ccc(S(=O)(=O)NC(=O)c3ccc(N4CCN(CC5=C(c6ccc(C(F)(F)F)cc6)CC(C)(C)CC5)CC4)cc3Oc3cnc4[nH]ccc4c3)cc2[N+](=O)[O-])CC1
Bcl-2-like protein 1
  IC50: 453 nM
[1]
  IC50: 2.4 nM
RS4-11
  IC50: 5.3 nM

## CC1(C)CCC(CN2CCN(c3ccc(C(=O)NS(=O)(=O)c4ccc(OC5CCOCC5)c([N+](=O)[O-])c4)c(Oc4cnc5[nH]ccc5c4)c3)CC2)=C(c2ccc(C(F)(F)F)cc2)C1
Bcl-2-like protein 1
  IC50: > 2000 nM
[1]
  IC50: 8.4 nM
RS4-11
  IC50: 375 nM

## CC1(C)CCC(CN2CCN(c3ccc(C(=O)NS(=O)(=O)c4ccc(OCC5CCCOC5)c([N+](=O)[O-])c4)c(Oc4cnc5[nH]ccc5c4)c3)CC2)=C(c2ccc(C(F)(F)F)cc2)C1 (stereo unspecified)
Bcl-2-like protein 1
  IC50: 761 nM
[1]
  IC50: 3 nM
RS4-11
  IC50: 12 nM

## CC1(C)CCC(CN2CCN(c3ccc(C(=O)NS(=O)(=O)c4ccc(NCC5CCOCC5)c([N+](=O)[O-])c4)c(Oc4cnc5[nH]ccc5c4)c3)CC2)=C(c2ccc(Cl)cc2C(F)(F)F)C1
Bcl-2-like protein 1
  IC50: > 2000 nM
RS4-11
  IC50: 74 nM

## CC1(C)CCC(CN2CCN(c3ccc(C(=O)NS(=O)(=O)c4ccc(NC5CCOC5)c([N+](=O)[O-])c4)c(Oc4cnc5[nH]ccc5c4)c3)CC2)=C(c2ccc(C(F)(F)F)cc2)C1 (stereo unspecified)
Bcl-2-like protein 1
  IC50: 837 nM
[1]
  IC50: 1.9 nM
RS4-11
  IC50: 32 nM

## CCN1CCC(COc2ccc(S(=O)(=O)NC(=O)c3ccc(N4CCN(CC5=C(c6ccc(C(F)(F)F)cc6)CC(C)(C)CC5)CC4)cc3Oc3cnc4[nH]ccc4c3)cc2[N+](=O)[O-])CC1
Bcl-2-like protein 1
  IC50: 34.6 nM
[1]
  IC50: 0.5 nM
RS4-11
  IC50: 4.9 nM

## CN1CCC(CNc2ccc(S(=O)(=O)NC(=O)c3ccc(N4CCN(CC5=C(c6ccc(C(F)(F)F)cc6)CC(C)(C)CC5)CC4)cc3Oc3cnc4[nH]ccc4c3)cc2[N+](=O)[O-])C1 (stereo unspecified)
Bcl-2-like protein 1
  IC50: 35.7 nM
[1]
  IC50: 2.4 nM
RS4-11
  IC50: 8.3 nM

## CC1(C)CCC(CN2CCN(c3ccc(C(=O)NS(=O)(=O)c4ccc(OCC5CCSCC5)c([N+](=O)[O-])c4)c(Oc4cnc5[nH]ccc5c4)c3)CC2)=C(c2ccc(C(F)(F)F)cc2)C1
Bcl-2-like protein 1
  IC50: 500 nM
[1]
  IC50: 1.65 nM
RS4-11
  IC50: 15 nM

## COc1ccc(C2=C(CN3CCN(c4ccc(C(=O)NS(=O)(=O)c5ccc(NCC6CCOCC6)c([N+](=O)[O-])c5)c(Oc5cnc6[nH]ccc6c5)c4)CC3)CCC(C)(C)C2)cc1
Bcl-2-like protein 1
  IC50: 813 nM
[1]
  IC50: 3.8 nM
RS4-11
  IC50: 12 nM

## CC1(C)CCC(CN2CCN(c3ccc(C(=O)NS(=O)(=O)c4ccc(OCC5CCOC5)c([N+](=O)[O-])c4)c(Oc4cnc5[nH]ccc5c4)c3)CC2)=C(c2ccc(C(F)(F)F)cc2)C1 (stereo unspecified)
Bcl-2-like protein 1
  IC50: 1700 nM
[1]
  IC50: 4.4 nM
RS4-11
  IC50: 47 nM

## CC1(C)CCC(CN2CCN(c3ccc(C(=O)NS(=O)(=O)c4ccc(NCC5CCOCC5)c([N+](=O)[O-])c4)c(Oc4cnc5[nH]ccc5c4)c3)CC2)=C(c2ccccc2C(F)(F)F)C1
Bcl-2-like protein 1
  IC50: 200 nM
[1]
  IC50: 1.7 nM
RS4-11
  IC50: 18 nM

## CC1(C)CCC(CN2CCN(c3ccc(C(=O)NS(=O)(=O)c4ccc(OCC5CCOCC5)c([N+](=O)[O-])c4)c(Oc4cnc5[nH]ccc5c4)c3)CC2)=C(c2ccc(C(F)(F)F)cc2)C1
[2]
  half-life: 4.5 h
Bcl-2-like protein 1
  IC50: 862 nM
[3]
  AUC(0-t) at 24 h: 2620 ng·h/mL
[4]
  remaining at 1 h: 74.8%
[5]
  MRT last at 24 h: 5.18 h
[6]
  AUC(0-inf): 3130 ng·h/mL
[7]
  remaining at 1 h: 76.6%
[8]
  AUC(0-t) at 24 h: 6960 ng·h/mL
[9]
  MRT last at 24 h: 5.7 h
[10]
  Activity: inactive
[11]
  half-life: 2.99 h
[12]
  Cmax: 438 ng/mL
[1]
  IC50: 1 nM
RS4-11
  IC50: 5.9 nM
[13]
  Cmax: 920 ng/mL
[14]
  Tmax: 4 h
[15]
  Tmax: 2.67 h
[16]
  remaining at 1 h: 75.8%
[17]
  Activity: Non-Toxic
[18]
  AUC(0-inf): 7000 ng·h/mL

## CN1CCC(COc2ccc(S(=O)(=O)NC(=O)c3ccc(N4CCN(CC5=C(c6ccc(C(F)(F)F)cc6)CC(C)(C)CC5)CC4)cc3Oc3cnc4[nH]ccc4c3)cc2[N+](=O)[O-])C1 (stereo unspecified)
Bcl-2-like protein 1
  IC50: 16.8 nM
[1]
  IC50: 0.75 nM
RS4-11
  IC50: 10 nM

## CC(Oc1ccc(S(=O)(=O)NC(=O)c2ccc(N3CCN(CC4=C(c5ccc(C(F)(F)F)cc5)CC(C)(C)CC4)CC3)cc2Oc2cnc3[nH]ccc3c2)cc1[N+](=O)[O-])C1CCOCC1 (stereo unspecified)
Bcl-2-like protein 1
  IC50: 618 nM
[1]
  IC50: 9.2 nM
RS4-11
  IC50: 269 nM

## CC1(C)CCC(CN2CCN(c3ccc(C(=O)NS(=O)(=O)c4ccc(NCC5CCOCC5)c([N+](=O)[O-])c4)c(Oc4cnc5[nH]ccc5c4)c3)CC2)=C(c2cccc(C(F)(F)F)c2)C1
RS4-11
  IC50: 63 nM

## CC1(C)CCC(CN2CCN(c3ccc(C(=O)NS(=O)(=O)c4ccc(NCC5CCOCC5)c([N+](=O)[O-])c4)c(Oc4cnc5[nH]ccc5c4)c3)CC2)=C(c2ccc(C(F)(F)F)cc2)C1
Bcl-2-like protein 1
  IC50: 788 nM
[1]
  IC50: 1.5 nM
RS4-11
  IC50: 6.2 nM

## CC1(C)CCC(CN2CCN(c3ccc(C(=O)NS(=O)(=O)c4ccc(NCC5CCOC5)c([N+](=O)[O-])c4)c(Oc4cnc5[nH]ccc5c4)c3)CC2)=C(c2ccc(C(F)(F)F)cc2)C1 (stereo unspecified)
Bcl-2-like protein 1
  IC50: 897 nM
[1]
  IC50: 4.7 nM
RS4-11
  IC50: 24.2 nM
